The record followed here is patent US20260027175A1, “COMPOSITIONS AND METHODS FOR TREATING A COGNITIVE DEFICIT” (priority 2022, published 2026).

For one assay, the system named is c-Jun (substrate of JNK). The assay is described as follows: Phospho c-Jun immunofluorescence, high content imaging. It is filed as cell-based. The following applies: reference treatment: 1 μM anisomycin 10 μg/mL, 30 min. On the procedure: SACC was received as an aqueous stock solution. The different solutions were created by performing cascade dilutions in the culture medium.
Cells were seeded at 12 10^3 cells/well in 96 well plates and cultured for 24 h. Subsequently, cells were exposed to the different tested conditions (reference treatment: 1 μM anisomycin 10 μg/mL, 30 min). At the end of the treatment, the cells were processed for immunofluorescence with a specific antibody against the phosphorylated form of c-Jun. The fluorescent immune-staining was subsequently imaged by high content imaging. Single cell analysis of the phospho c-Jun immune-staining was performed.
The pharmacological modulators that decreased the cytotoxic effects of 1% SACC did it on the 1% were maximally effective at 50 h treatment. Therefore, the effect of SACC was studied after 50 h treatment with 0.1%; 0.3% and 1% SACC on phosphorylation level of the c-Jun (substrate of JNK).

The test system of a further assay is Phospho-Tau in neurons. The assay is described as follows: Okadaic acid induced Tau hyper-phosphorylation in primary cortical neurons (Phospho-Tau/MAP2 immunofluorescence). It is filed as cell-based, rat. On the procedure:
The potential efficacy of the test compound (SAAC) against Alzheimer's disease was evaluated using an in vitro model in which Tau hyper-phosphorylation Is Induced by pharmacological treatment.
The test compound was tested in culture medium at […], and 10%. Positive control of reversion of hyperphosphorylation was […] at 3 mM.
Primary cortical cultures from E 19 rat embryos.
Phospho-Tau intensity in neurons and percentage of neurons with hyperphosphorylated Tau.
Cortical neurons from E 19 rat embryos were harvested and plated in 96 well plates. After 9 days in vitro, cells were treated with LiCI at 3 mM for 24 hours as a positive neuroprotective control or the test compound (SAAC) at 7 different concentrations. Another plate was pre-treated with the test compound (SAAC) at 7 different concentrations for 4 hours.
At the end of treatment durations, cells were treated with okadaic acid (OKA) for 3 hours. The cells were then fixed and processed for immunofluorescence analysis of Phospho-Tau (P-Tau) in neurons (Phospho-Tau labelling and neuronal labelling with MAP2 antibody).
After 9 days in vitro, neurons were treated with LiCI at 3 mM for 24 hours as a positive neuroprotective control (FIG. 5) or the test compound (SAAC) at 7 different concentrations (FIG. 7 & FIG. 8). At the end of treatment duration, cells were treated with okadaic acid (OKA) for 3 hours. After Phospho-Tau and MAP2 labelling, the signals were acquired and the mean intensity of Phospho-Tau staining in the neurons as well as the percentage of neurons with a high Phospho-Tau level was assessed.

The next assay relates to ICV-OKA rats. The assay is described as follows: Cognitive performance in Morris water maze task, ICV-OKA rats. It is filed as in vivo, Wistar rats. As to conditions: ICV injection 100 ng each ventricle, 15th day. On the procedure:
Adult male Wistar rats (200-230 g, 2 months old) were used.
Nuclear factor kappa-light-chain-enhancer of activated B cells (NF-KB) and BDNF ELISA kits were procured from Imegenex, San Diego, USA and Millipore, USA respectively. All other chemicals used for biochemical estimations were of analytical grade. SAAC was dissolved in double distilled water (DDW) while okadaic acid was dissolved in artificial cerebrospinal fluid (aCSF) (2.9 mM KCl, 147 mM NaCl, 1.7 mM CaCl2, 1.6 mM MgCl2, and 2.2 mM D-glucose).
(§1) Intracerebroventricular injection of okadaic acid was performed according to the procedure of Kamat et al. (2010). Rats were anesthetized with thiopentone (Neon Laboratories, India, 45 mg/kg, i.p.). The scalp was shaved, cleaned, and cut to expose the skull. The head was positioned in a stereotaxic frame and a midline sagittal incision was made in the scalp. Burr holes were drilled in the skull on both sides over the lateral ventricles by using the following coordinates: 0.8 mm posterior to bregma; 1.5 mm lateral to sagittal suture and 3.6 mm beneath the surface of the brain (Paxinos et al., 1980). […]
(§2) The experimental design is illustrated in FIG. 1. […] Memory impairment was assessed by Morris Water Maze on days 15th, 21st, 28th. […]
The acquisition and retention of memory was evaluated by using Morris water maze (Morris et al., 1982; Tuzcu and Baydas, 2006). […]

A further assay relates to BDNF. The assay can be described thus: Quantification of brain derived neurotrophic factor (BDNF) in hippocampus of ICV-OKA rats. As to conditions: ICV-OKA rats compared to sham group. It is filed as in vivo, Wistar rats. On the procedure:
Intracerebroventricular injection of okadaic acid was performed according to the procedure of Kamat et al. (2010). Rats were anesthetized with thiopentone (Neon Laboratories, India, 45 mg/kg, i.p.). The scalp was shaved, cleaned, and cut to expose the skull. The head was positioned in a stereotaxic frame and a midline sagittal incision was made in the scalp. Burr holes were drilled in the skull on both sides over the lateral ventricles by using the following coordinates: 0.8 mm posterior to bregma; 1.5 mm lateral to sagittal suture and 3.6 mm beneath the surface of the brain (Paxinos et al., 1980). Okadaic acid (200 ng) was injected bilaterally making the total dose of 100 ng in each ventricle. The concentration of okadaic acid in aCSF was adjusted so as to deliver 4 μl of the solution. Sham animals received ICV injection of the same volume of aCSF. The skin was sutured after injection followed by daily application of antiseptic powder (Neosporin). Postoperatively, the rats were fed with oral glucose and normal pellet diet for 4 days, followed by normal pellet diet alone.
as §2
The quantification of BDNF was done with the help and instructions provided by Millipore, USA quantikine rat BDNF immunoassay kit.

A further assay concerns NF-κβ p65 subunit. The assay can be described thus: Quantification of NF-KB p65 unit (ActivELISA) in hippocampus of ICV-OKA rats. It is filed as in vivo, Wistar rats. The following applies: ICV-OKA administered rats. Here is the method:
as §1, with “1980). Okadaic acid (200 ng) was injected bilaterally making the total dose of 100 ng in each ventricle.” for “1980).”
as §2
The NF-KB/p65 ActivELISA kit (Imgenex, USA) was used to measure NF-KB-free p65 in the nuclear fraction of different brain regions. […] The NF-KB ActivELISA is a sandwich ELISA in which free p65 was captured by anti-p65 antibody-coated plates and the amount of bound p65 was detected by adding a second anti-p65 antibody followed by alkaline phosphatase conjugated secondary antibody using colorimetric detection in an ELISA plate reader at 405 nm. The results were expressed as ng/mg of protein.

As for `COc1ccc(C[C@H]2NC[C@H](O)[C@H]2OC(C)=O)cc1` [Aniosomycin, anisomycin], in the assay on c-Jun (substrate of JNK), the c-Jun phosphorylation entry is listed as “induced c-Jun phosphorylation in the total population of treated cells”.
With `C=C1[C@@H](O)[C@@H]2O[C@]3(CC[C@H](/C=C/[C@@H](C)[C@@H]4CC(C)=C[C@@]5(O[C@H](C[C@@](C)(O)C(=O)O)CC[C@H]5O)O4)O3)CC[C@H]2O[C@@H]1[C@@H](O)C[C@H](C)[C@H]1O[C@@]2(CCCCO2)CC[C@H]1C` [okadaic acid], the “increase in the percentage of neurons with high Phospho-Tau levels” value with Phospho-Tau in neurons (10 nM okadaic acid, 3 hours) was around 2 fold; with Phospho-Tau in neurons (100 nM okadaic acid, 3 hours), around 3 fold. Further, the “phosphorylation of Tau” value with Phospho-Tau in neurons (10 nM okadaic acid, 4 h treatment experiment) is on record as “not able to elicit any increase”. Besides, the “phosphorylation of the Tau protein” value with Phospho-Tau in neurons (okadaic acid 10 nM and 100 nM, 3 hours) is “increased the phosphorylation of the Tau protein in a dose dependent way”. Also, the “amount of phosphorylated tau in the axons and dendrites of the neurons” value in the assay on Phospho-Tau in neurons (okadaic acid treatment alone) is given as “greatly increased”. The “lower ability to find the platform and learn its location” value in the assay on ICV-OKA rats came to 1.5 fold. In addition, the “decrease in brain derived neurotrophic factors” value in the assay with BDNF was determined as 40%. In the assay with NF-κβ p65 subunit, the “elevation of NF-κβ p65 subunit in hippocampus” value was found to be 105%.
